Laboratory results taken from patent US20250228835A1, “PYRIDINYLOXYPYRIDINES AND RELATED COMPOUNDS AND THEIR USE IN TREATING MEDICAL CONDITIONS” (Rectify Pharmaceuticals, Inc., priority 2024, published 2025).

target: T1, ABCD2 WT (Homo sapiens, UniProt Q9UBJ2); test: D2 correction dose-response assay: ABCD2 WT HiBit protein expression; type: cell-based; conditions: HEK-293/ABCD2 WT cells, 24 hours treatment, HiBit luminescence; class combines EC50 and Mean MaxAct (fold); read-out: ABCD2 WT EC50, Emax
T1 construct: expressed in transfected cells
T1 sequence (Q9UBJ2 1-740): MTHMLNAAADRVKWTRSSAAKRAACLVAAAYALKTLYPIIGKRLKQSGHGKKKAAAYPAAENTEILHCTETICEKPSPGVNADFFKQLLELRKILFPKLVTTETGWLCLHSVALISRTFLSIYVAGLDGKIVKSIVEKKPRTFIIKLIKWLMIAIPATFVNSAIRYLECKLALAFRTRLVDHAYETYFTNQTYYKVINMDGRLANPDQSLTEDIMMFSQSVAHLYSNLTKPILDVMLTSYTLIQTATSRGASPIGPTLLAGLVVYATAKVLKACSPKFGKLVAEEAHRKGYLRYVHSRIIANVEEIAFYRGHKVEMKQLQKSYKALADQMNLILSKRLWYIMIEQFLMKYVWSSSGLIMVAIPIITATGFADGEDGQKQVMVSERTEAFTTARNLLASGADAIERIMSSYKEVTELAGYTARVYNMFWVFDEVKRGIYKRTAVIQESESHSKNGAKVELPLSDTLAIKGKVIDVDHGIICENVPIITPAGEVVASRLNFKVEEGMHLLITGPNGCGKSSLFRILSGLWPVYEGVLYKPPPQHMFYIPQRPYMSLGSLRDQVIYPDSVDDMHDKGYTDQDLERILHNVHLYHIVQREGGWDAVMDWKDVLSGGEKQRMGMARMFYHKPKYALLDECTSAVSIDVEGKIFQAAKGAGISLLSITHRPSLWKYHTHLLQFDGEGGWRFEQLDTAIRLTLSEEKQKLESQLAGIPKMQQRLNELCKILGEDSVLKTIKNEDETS
In short: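 HEK-293 cells stably expressing HiBit-tagged human ABCD2 WT were treated with 11 doses (3-fold dilutions, top final 30 μM, 0.3% DMSO) for 24 h at 37 °C. Expression was measured by HiBit lytic luminescence after 1 h at 25 °C, giving EC50 and Emax.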

**Q.** For Cc1cc(C)c(Oc2nc(-c3cncc(S(C)(=O)=O)c3)ccc2NS(C)(=O)=O)c(C)c1 [Compound I-278], which EC50 is on record?
**A.** 1 to 10 µM

**Q.** For Cc1cc(C)c(Oc2nc(-c3cncc(C#N)c3)ccc2S(C)(=N)=O)c(C)c1 (stereo not shown) [Compound I-279], which EC50 is on record?
**A.** 10 to 25 µM

**Q.** For Cc1cc(C)c(Oc2nc(-c3cncc(C#N)c3)ccc2S(N)(=O)=O)c(C)c1 [Compound I-280], which EC50 is on record?
**A.** < 1 µM

**Q.** How did the EC50 turn out when CNS(=O)(=O)c1ccc(-c2cncc(C#N)c2)nc1Oc1c(C)cc(C)cc1C [Compound I-281] was run?
**A.** < 1 µM

**Q.** For Cc1cc(C)c(Oc2nc(-c3cc(Cl)cnc3C)ccc2NS(C)(=O)=O)c(C)n1 [Compound I-282], which EC50 is on record?
**A.** 1 to 10 µM

**Q.** How did the EC50 turn out when Cc1cc(C)c(Oc2nc(-c3cn(C)nc3C)ccc2NS(C)(=O)=O)c(C)c1 [Compound I-283] was run?
**A.** 1 to 10 µM

**Q.** For Cc1cc(C)c(Oc2nc(-c3cncc(C#N)c3)ncc2NS(C)(=O)=O)c(C)n1 [Compound I-284], which EC50 is on record?
**A.** < 1 µM

**Q.** For Cc1cc(C)c(Oc2nc(N3CCN(C(=O)C4CC4)CC3)ccc2S(N)(=O)=O)c(C)c1 [Compound I-285], which EC50 is on record?
**A.** 10 to 25 µM

**Q.** How did the EC50 turn out when Cc1cc(C2CC2)nc(C2CC2)c1Oc1nc(-c2cncc(C#N)c2)ccc1S(=N)(=O)C1CC1 (stereo not shown) [Compound I-317] was run?
**A.** 1 to 10 µM

**Q.** With Cc1cc(C(F)F)cc(C2CC2)c1Oc1nc(-c2cncc(C#N)c2)ccc1S(=N)(=O)C1CC1 (stereo not shown) [Compound I-319] as the compound, how does the EC50 read?
**A.** 1 to 10 µM

**Q.** For Cc1cc(C(F)F)nc(C2CC2)c1Oc1nc(-c2cncc(C#N)c2)ccc1S(=O)(=O)NC1CCOCC1 [Compound I-320], which EC50 is on record?
**A.** > 25 µM

**Q.** How did the EC50 turn out when Cc1cc(C(F)F)nc(C2CC2)c1Oc1nc(-c2cncc(C#N)c2)ccc1S(=O)(=O)NC1COC1 [Compound I-321] was run?
**A.** 1 to 10 µM

**Q.** For Cc1cc(C2CC2)nc(C2CC2)c1Oc1nc(-c2cncc(C#N)c2)ccc1S(=O)(=O)NC1CCOCC1 [Compound I-322], which EC50 is on record?
**A.** > 25 µM

**Q.** Which EC50 does the source give for Cc1cc(C)c(Oc2[nH]c(-c3cncc(C#N)c3)cc(=O)c2NS(C)(=O)=O)c(C)n1 [Compound I-325] here?
**A.** 10 to 25 µM

**Q.** With Cc1cc(C)c(Oc2nc(-c3cc(C#N)c[nH]c3=O)ccc2NS(C)(=O)=O)c(C)n1 [Compound I-326] as the compound, how does the EC50 read?
**A.** > 25 µM

**Q.** Cc1cc(C)c(Oc2nc(-c3cncc(C#N)c3)c(O)cc2NS(C)(=O)=O)c(C)n1 [Compound I-327] was tested. Which EC50 did it give?
**A.** < 1 µM
